Here are results for eight test systems from the supplement of paper PMC6045584.

Compound in assay [1]: Cn1cc(C2=Nc3cc(NC(=O)C(N)C4CCCCC4)cc4c3C2=CNNC4=O)cn1
The assay can be described thus: surviving fraction relative to DMSO-only wells; higher = less growth inhibition. The settings on record: exposure time: 5 days. In short, it runs like this: (§1)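 Tumour cell lines in log phase were plated in 384-well plates at 250–500 cells per well, then, after 24 hours, exposed continuously for five days to inhibitors at 0.5, 1, 5, 10, 50, 100, 500 and 1000 nM. Viability came from CellTiter-Glo luminescence, and surviving fraction is that signal normalised to the median of DMSO-only wells. Plates were read after 10 minutes at room temperature, and each line, screened three times, was kept only when replicate Pearson r was >0.7 and median Z' was >0.3.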

Compound in a further assay: Nc1nc2[nH]cnc2c(=S)[nH]1 [TIOGUANINE]
The description is as above. Particulars: exposure time: 5 days. In short, it runs like this: as §1

± gives the standard deviation of the averaged measurements.

As for MCF7 BREAST, the surviving fraction in assay [1] (0.5 nM) is 0.913 ± 0.043; in assay [1] (1 nM), 0.918 ± 0.052; in assay [1] (5 nM), 0.92 ± 0.023; in assay [1] (10 nM), 0.865 ± 0.022; in assay [1] (50 nM) it was 0.989 ± 0.022; in assay [1] (100 nM), 0.885 ± 0.029. The surviving fraction in assay [1] (500 nM) turned out to be 0.745 ± 0.02; in assay [1] (1000 nM), 0.575 ± 0.011; with TIOGUANINE (0.5 nM), 0.824 ± 0.015; in the assay with TIOGUANINE (1 nM), 0.804 ± 0.075; in the assay with TIOGUANINE (5 nM), 0.846 ± 0.032; with TIOGUANINE (10 nM) it was 0.835 ± 0.025. For the same test system, the surviving fraction with TIOGUANINE (50 nM) was 0.903 ± 0.045; with TIOGUANINE (100 nM), 0.875 ± 0.069; with TIOGUANINE (500 nM), 0.872 ± 0.054; in the assay with TIOGUANINE (1000 nM), 0.889 ± 0.055.
As for MDAMB134 BREAST, the surviving fraction came to 0.9005 ± 0.0064 in assay [1] (0.5 nM); 0.987 ± 0.062 in assay [1] (1 nM); 0.908 ± 0.092 in assay [1] (5 nM); 0.855 ± 0.17 in assay [1] (10 nM); 0.642 ± 0.067 in assay [1] (50 nM); 0.525 ± 0.14 in assay [1] (100 nM). Also, the surviving fraction was determined as 0.442 ± 0.033 in assay [1] (500 nM); 0.505 ± 0.018 in assay [1] (1000 nM); 0.993 ± 0.11 with TIOGUANINE (0.5 nM); 1.04 ± 0.12 with TIOGUANINE (1 nM); 0.909 ± 0.017 with TIOGUANINE (5 nM); 0.928 ± 0.11 with TIOGUANINE (10 nM). The surviving fraction with TIOGUANINE (50 nM) is 1.04 ± 0.0028; with TIOGUANINE (100 nM), 1.1 ± 0.17; with TIOGUANINE (500 nM), 0.88 ± 0.049; with TIOGUANINE (1000 nM), 0.858 ± 0.073.
On to MDAMB157 BREAST, for which the surviving fraction was 0.982 ± 0.061 in assay [1] (0.5 nM); 0.965 ± 0.13 in assay [1] (1 nM); 1.02 ± 0.065 in assay [1] (5 nM); 0.994 ± 0.12 in assay [1] (10 nM); 1 ± 0.044 in assay [1] (50 nM); 0.916 ± 0.1 in assay [1] (100 nM). For the same test system, the surviving fraction in assay [1] (500 nM) was determined as 0.425 ± 0.057; in assay [1] (1000 nM), 0.172 ± 0.043; in the assay with TIOGUANINE (0.5 nM) it was 0.867 ± 0.072; with TIOGUANINE (1 nM) it was 0.857 ± 0.052; with TIOGUANINE (5 nM), 0.958 ± 0.013; in the assay with TIOGUANINE (10 nM), 0.921 ± 0.071. Besides, the surviving fraction with TIOGUANINE (50 nM) was found to be 0.986 ± 0.078; in the assay with TIOGUANINE (100 nM), 0.961 ± 0.085; with TIOGUANINE (500 nM), 0.88 ± 0.055; with TIOGUANINE (1000 nM), 0.89 ± 0.039.
For the test system MDAMB231 BREAST, the surviving fraction in assay [1] (0.5 nM) amounted to 0.95 ± 0.016; in assay [1] (1 nM) it was 0.949 ± 0.031; in assay [1] (5 nM), 0.964 ± 0.015; in assay [1] (10 nM), 0.953 ± 0.032; in assay [1] (50 nM) it was 0.908 ± 0.029; in assay [1] (100 nM) it was 0.896 ± 0.019. Besides, the surviving fraction was determined as 0.544 ± 0.04 in assay [1] (500 nM); 0.278 ± 0.01 in assay [1] (1000 nM); 0.988 ± 0.027 with TIOGUANINE (0.5 nM); 0.994 ± 0.021 with TIOGUANINE (1 nM); 1.01 ± 0.027 with TIOGUANINE (5 nM); 0.994 ± 0.028 with TIOGUANINE (10 nM). For the same test system, the surviving fraction with TIOGUANINE (50 nM) is 1.01 ± 0.035; in the assay with TIOGUANINE (100 nM), 1.01 ± 0.035; with TIOGUANINE (500 nM) it was 0.74 ± 0.039; with TIOGUANINE (1000 nM), 0.573 ± 0.016.
Turning to MDAMB361 BREAST, the surviving fraction is 0.751 ± 0.014 in assay [1] (0.5 nM); 0.706 ± 0.065 in assay [1] (1 nM); 0.71 ± 0.023 in assay [1] (5 nM); 0.656 ± 0.061 in assay [1] (10 nM); 0.456 ± 0.028 in assay [1] (50 nM); 0.399 ± 0.032 in assay [1] (100 nM). In addition, the surviving fraction in assay [1] (500 nM) came out at 0.43 ± 0.013; in assay [1] (1000 nM), 0.49 ± 0.013; in the assay with TIOGUANINE (0.5 nM), 0.914 ± 0.011; in the assay with TIOGUANINE (1 nM), 0.845 ± 0.011; with TIOGUANINE (5 nM), 0.881 ± 0.0085; with TIOGUANINE (10 nM), 0.884 ± 0.062. Moreover, the surviving fraction with TIOGUANINE (50 nM) was 0.846 ± 0.018; in the assay with TIOGUANINE (100 nM) it was 0.955 ± 0.054; with TIOGUANINE (500 nM), 0.882 ± 0.067; in the assay with TIOGUANINE (1000 nM), 0.963 ± 0.043.
For MDAMB436 BREAST, the surviving fraction in assay [1] (0.5 nM) is 0.847 ± 0.079; in assay [1] (1 nM) it was 0.911 ± 0.097; in assay [1] (5 nM) it was 0.871 ± 0.05; in assay [1] (10 nM), 0.852 ± 0.11; in assay [1] (50 nM), 0.813 ± 0.051; in assay [1] (100 nM) it was 0.577 ± 0.031. Also, the surviving fraction in assay [1] (500 nM) was 0.284 ± 0.02; in assay [1] (1000 nM), 0.228 ± 0.011; with TIOGUANINE (0.5 nM) it was 0.892 ± 0.057; with TIOGUANINE (1 nM), 0.837 ± 0.05; in the assay with TIOGUANINE (5 nM) it was 0.864 ± 0.059; with TIOGUANINE (10 nM) it was 0.932 ± 0.028. Besides, the surviving fraction in the assay with TIOGUANINE (50 nM) is 1.03 ± 0.096; in the assay with TIOGUANINE (100 nM), 0.906 ± 0.13; with TIOGUANINE (500 nM), 0.921 ± 0.094; with TIOGUANINE (1000 nM), 0.928 ± 0.065.
On to MDAMB453 BREAST, for which the surviving fraction in assay [1] (0.5 nM) is 0.971 ± 0.011; in assay [1] (1 nM), 1.01 ± 0.034; in assay [1] (5 nM), 0.999 ± 0.026; in assay [1] (10 nM), 1.01 ± 0.04; in assay [1] (50 nM), 0.784 ± 0.044; in assay [1] (100 nM), 0.293 ± 0.013. The surviving fraction in assay [1] (500 nM) was 0.179 ± 0.019; in assay [1] (1000 nM), 0.206 ± 0.011; in the assay with TIOGUANINE (0.5 nM), 1.01 ± 0.073; in the assay with TIOGUANINE (1 nM), 0.999 ± 0.053; with TIOGUANINE (5 nM) it was 1.04 ± 0.027; in the assay with TIOGUANINE (10 nM) it was 1.02 ± 0.04. The surviving fraction worked out at 1.08 ± 0.03 with TIOGUANINE (50 nM), 1.03 ± 0.029 with TIOGUANINE (100 nM), 0.98 ± 0.13 in the assay with TIOGUANINE (500 nM) and 0.864 ± 0.09 in the assay with TIOGUANINE (1000 nM).
In the case of MDAMB468 BREAST, the surviving fraction in assay [1] (0.5 nM) was 0.95 ± 0.0069; in assay [1] (1 nM) it was 0.975 ± 0.067; in assay [1] (5 nM), 0.984 ± 0.049; in assay [1] (10 nM), 0.978 ± 0.031; in assay [1] (50 nM), 0.858 ± 0.025; in assay [1] (100 nM), 0.786 ± 0.11. Further, the surviving fraction in assay [1] (500 nM) was determined as 0.151 ± 0.0051; in assay [1] (1000 nM), 0.0767 ± 0.0046; with TIOGUANINE (0.5 nM) it was 1.02 ± 0.079; with TIOGUANINE (1 nM), 0.995 ± 0.025; in the assay with TIOGUANINE (5 nM) it was 1.08 ± 0.056; in the assay with TIOGUANINE (10 nM), 1.06 ± 0.1. Besides, the surviving fraction in the assay with TIOGUANINE (50 nM) turned out to be 1.1 ± 0.056; with TIOGUANINE (100 nM), 1.19 ± 0.087; with TIOGUANINE (500 nM), 1.04 ± 0.087; with TIOGUANINE (1000 nM) it was 1.05 ± 0.042.
